According to publication PMC10552397 (Cell Communication and Signaling : CCS, 2023):
“And” between values parts separate entries of the source, which are not always exact repeats. Identical values can stand only once.

Experiments:
HeLa wt cells = test: Immunofluorescence of GRASP55 and LC3; assay type: cell-based; settings: 6 h
Description: For immunofluorescence microscopy, HeLa cells were seeded on glass coverslips in 24-well plates. After treatment, cells were fixed in 4% paraformaldehyde for 15 min on ice, quenched with 50 mM NH4Cl for 15 min and permeabilized with 50 µg/mL digitonin (Sigma-Aldrich, St. Louis, MO, USA, #D141) for 5 min. Fixed samples were blocked with 3% BSA (Roth, Karlsruhe, Germany, #8076) for 30 min or overnight and incubated with primary antibodies diluted in 3% BSA for 2 h. Samples were then washed three times with DPBS, incubated with the appropriate secondary antibodies diluted in 3% BSA for 30 min and washed three times with DPBS. Afterwards, cells were embedded in ProLong Glass Antifade Mountant (Thermo Fisher Scientific, Waltham, MA, USA, #P36980) containing 1 µg/mL DAPI (Roth, Karlsruhe, Germany, #6335.1). Images were recorded with an Axio Observer 7 fluorescence microscope (Carl Zeiss Microscopy, Oberkochen, Germany) using a 40x/1,4 Oil DIC M27 Plan-Apochromat objective (Carl Zeiss Microscopy, Oberkochen, Germany) and an ApoTome 2 (Carl Zeiss Microscopy, Oberkochen, Germany).

[1] = target: T1, proteins of HeLa wt cells (Homo sapiens, UniProt P30837); test: biochemical; settings: for normalized.Reporter.intensity: single replicates n1-n3
T1 sequence (P30837 18-517): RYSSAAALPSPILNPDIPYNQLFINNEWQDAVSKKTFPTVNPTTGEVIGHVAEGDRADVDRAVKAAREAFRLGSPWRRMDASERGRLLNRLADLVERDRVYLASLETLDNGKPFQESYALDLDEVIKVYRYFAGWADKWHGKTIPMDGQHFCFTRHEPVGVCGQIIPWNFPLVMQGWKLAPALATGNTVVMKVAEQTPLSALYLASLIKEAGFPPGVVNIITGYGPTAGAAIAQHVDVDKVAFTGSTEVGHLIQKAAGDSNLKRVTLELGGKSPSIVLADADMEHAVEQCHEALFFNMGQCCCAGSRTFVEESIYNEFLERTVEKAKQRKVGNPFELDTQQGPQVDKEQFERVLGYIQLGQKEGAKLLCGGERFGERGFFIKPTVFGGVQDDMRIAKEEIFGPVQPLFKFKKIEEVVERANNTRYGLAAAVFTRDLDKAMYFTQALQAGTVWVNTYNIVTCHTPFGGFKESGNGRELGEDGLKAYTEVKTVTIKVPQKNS
Description: Adherent cells were washed in the dish once with DPBS and harvested by Trypsin–EDTA (0.25%, Thermo Fisher Scientific, Waltham, MA, USA, #25,200,056) treatment. After addition of 35 mL DPBS, the cells were pelleted by centrifugation (300 rcf, 5 min, 4 °C), and washed twice by re-suspending and pelleting using 45 mL and 1 mL DPBS, respectively, to remove excess trypsin and for transfer into pre-weighed 2 mL Eppendorf tubes to determine the cell pellet wet weights as quality check after centrifugation (300 rcf, 5 min, 4 °C) and complete removal of the supernatant. Cells for TPP-TR were resuspended using 1 mL, and cells for TPP-CCR were resuspended using 0.4 mL ice-cold DPBS, respectively, supplemented with protease inhibitor cocktail (Roche, Basel, Switzerland, #5,892,791,001). […] Cell suspensions were shortly centrifuged (1 s or less) using a benchtop centrifuge to release trapped air and to achieve an even liquid level without pelleting the cells. The samples were then temperature treated by a 7 min pre-incubation at RT, 3 min temperature treatment in the PCR cycler (DNA Engine Tetrad 2, lid temperature 70 °C) at different temperatures (37 °C or 50 °C for TPP-CCR or the temperatures given in Table 2 for TPP-TR) and a 3 min post-incubation at RT in a metal heating block for uniform heat dissipation.
After temperature treatment, samples were supplemented with lysis buffer (final concentrations: 0.36 U/µL benzonase, 1.5 mM MgCl2, 1 mM Na3VO4, 10 mM NaF, 2.5 mM Na4P2O7, 0.8% w/v NP-40) for 1 h on ice. The lysates were cleared from cell debris as well as denatured and precipitated proteins by centrifugation at 20,000 rcf and 4 °C for 30 min. The total protein concentration of the resulting cell extracts containing the fraction of soluble, non-denatured proteins was determined (Pierce 660 nm Protein Assay, BSA as standard). Cell extracts were shock frozen in liquid nitrogen and stored at -80 °C. The three replicates for TPP-TR and TPP-CCR were prepared on consecutive days, respectively. The two (37 °C or 50 °C) x ten (concentrations) x three (replicates) = 60 TPP-CCR samples and two (treatment and control) x ten (temperatures) x three (replicates) = 60 TPP-TR samples were analyzed by LC–MS/MS. GRASP55 was additionally quantified from the TPP-TR samples by immunoblotting as described in the respective section.
For TPP-CCR, SP3 was performed as described with slight modifications to the original protocol using on average 5 µg total protein per sample and resulting in theoretically 5 µg peptides in 22 µL 50 mM triethylammonium bicarbonate per sample. For each of the two (treatment and control) x three (replicates) = six TPP-TR temperature treatment sample sets, the same volume for each of the ten temperature samples was used for SP3 processing, thus, maintaining the information about the temperature dependent non-denatured protein content. This volume was calculated such that the lowest two temperature samples (36.5 °C and 41.2 °C) contained 10 µg total protein on average. The samples were diluted using SDS containing buffer (20 µL final, final concentrations: 7.5% glycerol, 3% SDS, 37.5 mM Tris/HCl pH 7.0) and the proteins were reduced, alkylated, and precipitated on the solid phase as described using adjusted volumes (2 × due to processing 10 µg instead of 5 µg). Volumes for washing of the aggregated proteins on the solid phase and for tryptic digestion were kept unchanged, however, to maintain the maximal total protein to trypsin/Lys-C ratio at 50:1 in the two rounds of digestion (13 h and 4 h), respectively, 2 × 0.2 µg trypsin/Lys-C was used per sample, theoretically resulting in at most about 10 µg peptides in 22 µL 50 mM triethylammonium bicarbonate.

With CCCCCC1=C/C(=C/c2[nH]c(-c3ccc[nH]3)cc2OC)N=C1C [Prodigiosin, prodigiosin] the “co-localization of LC3 and GRASP55” value (HeLa wt cells; BafA1 10 nM) was “highly significant, dose-dependent increase”, the “number of LC3 dots” value (HeLa wt cells; BafA1 10 nM) was “increased dose-dependently” and the “mean area of GRASP55 dots” value (HeLa wt cells; all concentrations, vs DMSO) was “significantly increased”. For the same compound, the EC50 [1] was 4.37 nM, the “diff pseudoR2(50-37°C)” value ([1]; ALDH1B1) was 0.88 and the “pseudoR2 (dose response curve fit, 37°C)” value ([1]; ALDH1B1, 37°C) was 0.0136. For the same compound, the normalized.Reporter.intensity ([1]; ALDH1B1, 37°C, 0.0976562 nM prodigiosin) was -0.04 and -1.95 and 1.19, the normalized.Reporter.intensity ([1]; ALDH1B1, 37°C, 0.390625 nM prodigiosin) was 0.86 and 1.70 and 1.19 and the normalized.Reporter.intensity ([1]; ALDH1B1, 37°C, 1.5625 nM prodigiosin) was 1.45 and -0.51 and 0.96. The normalized.Reporter.intensity ([1]; ALDH1B1, 37°C, 6.25 nM prodigiosin) was 2.17 and -0.34 and 2.41, the normalized.Reporter.intensity ([1]; ALDH1B1, 37°C, 25 nM prodigiosin) was 1.79 and 0.42 and 0.87 and the normalized.Reporter.intensity ([1]; ALDH1B1, 37°C, 100 nM prodigiosin) was -0.83 and -1.09 and 2.36. For the same compound, the normalized.Reporter.intensity ([1]; ALDH1B1, 37°C, 400 nM prodigiosin) was -1.07 and -1.13 and 1.65, the normalized.Reporter.intensity ([1]; ALDH1B1, 37°C, 1600 nM prodigiosin) was -1.06 and 0.17 and 2.67 and the normalized.Reporter.intensity ([1]; ALDH1B1, 37°C, 6400 nM prodigiosin) was -0.10 and 1.67 and -1.95. For the same compound, the “H (dose response curve fit parameters, 37°C)” value ([1]; ALDH1B1, 37°C, Hill slope of fit) was 1.47e-8, the “pseudoR2 (dose response curve fit, 50°C)” value ([1]; ALDH1B1, 50°C) was 0.89 and the normalized.Reporter.intensity ([1]; ALDH1B1, 50°C, 0.0976562 nM prodigiosin) was 0.23 and -0.0339 and 0.17. The normalized.Reporter.intensity ([1]; ALDH1B1, 50°C, 0.390625 nM prodigiosin) was 0.32 and 0.04 and 0.17, the normalized.Reporter.intensity ([1]; ALDH1B1, 50°C, 1.5625 nM prodigiosin) was 0.40 and 0.42 and 0.21 and the normalized.Reporter.intensity ([1]; ALDH1B1, 50°C, 6.25 nM prodigiosin) was 0.69 and 0.56 and 0.41. For the same compound, the normalized.Reporter.intensity ([1]; ALDH1B1, 50°C, 25 nM prodigiosin) was 0.66 and 0.74 and 0.67, the normalized.Reporter.intensity ([1]; ALDH1B1, 50°C, 100 nM prodigiosin) was 1.06 and 0.92 and 1.01 and the normalized.Reporter.intensity ([1]; ALDH1B1, 50°C, 400 nM prodigiosin) was 0.70 and 0.97 (2×). The normalized.Reporter.intensity ([1]; ALDH1B1, 50°C, 1600 nM prodigiosin) was 0.78 and 0.95 and 0.92, the normalized.Reporter.intensity ([1]; ALDH1B1, 50°C, 6400 nM prodigiosin) was 1.11 and 0.90 and 1.01 and the “H (dose response curve fit parameters, 50°C)” value ([1]; ALDH1B1, 50°C, Hill slope of fit) was 0.60.
